pKi: −log10 of the molar value.
Target: T1, PknB (Mycobacterium tuberculosis, UniProt P9WI81)
T1 construct: made in house
Experiment: biochemical
Set-up: species or system M. tuberculosis
Conditions: 3 nM PknB, 6 uM GarA, 3 μM ATP, 30 min; competitive tight-binding fit; several symbols in a cell = repeat determinations

T1 sequence (P9WI81 whole entry): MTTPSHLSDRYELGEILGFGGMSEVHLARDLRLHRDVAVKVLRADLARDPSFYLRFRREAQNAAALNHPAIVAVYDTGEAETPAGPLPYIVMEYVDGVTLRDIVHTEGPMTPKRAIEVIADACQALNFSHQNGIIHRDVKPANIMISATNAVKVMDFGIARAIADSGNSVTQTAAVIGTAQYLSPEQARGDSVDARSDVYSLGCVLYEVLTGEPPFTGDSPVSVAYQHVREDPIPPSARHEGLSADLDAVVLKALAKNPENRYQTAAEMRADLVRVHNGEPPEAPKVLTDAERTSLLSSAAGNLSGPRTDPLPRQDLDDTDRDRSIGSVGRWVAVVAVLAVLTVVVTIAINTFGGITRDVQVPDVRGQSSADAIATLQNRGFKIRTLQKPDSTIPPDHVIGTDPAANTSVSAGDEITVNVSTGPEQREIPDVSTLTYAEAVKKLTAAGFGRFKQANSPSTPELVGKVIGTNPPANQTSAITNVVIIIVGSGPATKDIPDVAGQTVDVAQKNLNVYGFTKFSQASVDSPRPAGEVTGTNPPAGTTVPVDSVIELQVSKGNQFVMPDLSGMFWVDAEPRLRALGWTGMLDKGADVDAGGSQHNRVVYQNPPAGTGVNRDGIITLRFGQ

Question: `C#Cc1cnc(-c2ccc([C@@H](O)CCC)s2)nc1Nc1cc(C2CC2)n[nH]1` (stereo in doubt) [Compound 211, 1-[5-[4-[(5-cyclopropyl-2H-pyrazol-3-yl)amino]-5-ethynyl-pyrimidin-2-yl]-2-thienyl]butan-1-ol] was tested. Which “Ki Values” did it give?
Answer: Its value is “A**, A*, A*”.

Question: For `Nc1cnc(-c2ccccc2)nc1Nc1cc(C2CC2)[nH]n1` [Compound 5, N-(5-cyclopropyl-1H-pyrazol-3-yl)-2-phenylpyrimidine-4,5-diamine], which “Ki Values” is on record?
Answer: Its value is “A*, A”.

Question: For `CS(=O)(=O)c1ccc(-c2nccc(Nc3cc(C4CC4)[nH]n3)n2)cc1` [Compound 15, N-(5-cyclopropyl-1H-pyrazol-3-yl)-2-(4-(methylsulfonyl)phenyl)pyrimidin-4-amine], which “Ki Values” is on record?
Answer: The value was “A*, A”.

Question: Which “Ki Values” does the source give for `CS(=O)(=O)c1ccc(-c2ncc(F)c(Nc3cc(C4CC4)[nH]n3)n2)cc1` [Compound 16, N-(5-cyclopropyl-1H-pyrazol-3-yl)-5-fluoro-2-(4-methylsulfonylphenyl)-pyrimidin-4-amine] here?
Answer: Its value is “A*, A”.

Question: With `CS(=O)(=O)c1ccc(-c2ncc(Cl)c(Nc3cc(C4CC4)[nH]n3)n2)cc1` [Compound 23, 5-chloro-N-(5-cyclopropyl-1H-pyrazol-3-yl)-2-(4-methylsulfonylphenyl)-pyrimidin-4-amine] as the compound, how does the “Ki Values” read?
Answer: The value was “A, B**”.

Question: For `Cc1cnc(-c2cccs2)nc1Nc1cc(C2CC2)[nH]n1` [Compound 38, N-(5-cyclopropyl-1H-pyrazol-3-yl)-5-methyl-2-(thiophen-2-yl)pyrimidin-4-amine], which “Ki Values” is on record?
Answer: The value was “A*, A”.

Question: With `CCc1cnc(N2CCC(N3CCCCC3)CC2)nc1Nc1cc(C2CC2)[nH]n1` [Compound 44, N-(5-cyclopropyl-1H-pyrazol-3-yl)-5-ethyl-2-[4-(1-piperidyl)-1-piperidyl]-pyrimidin-4-amine] as the compound, how does the “Ki Values” read?
Answer: Its value is “C, D”.

Question: `CCc1cnc(N2CCCCC2)nc1Nc1cc(C2CC2)[nH]n1` [Compound 45, N-(5-cyclopropyl-1H-pyrazol-3-yl)-5-ethyl-2-(1-piperidyl)pyrimidin-4-amine] was tested. Which “Ki Values” did it give?
Answer: Its value is “C, D”.

Same assay, conditions: 3 nM PknB, 6 uM GarA, 3 μM ATP, 30 min; competitive tight-binding fit; several symbols in a cell = repeat determinations; read-out: Ki Values

Question: `C[C@@H]1C[C@H]1c1cc(Nc2nc(-c3ccc(S(N)(=O)=O)s3)ncc2Cl)n[nH]1` (relative stereo) [Compound 320, 5-(5-chloro-4-(5-(trans-2-methylcyclopropyl)-1H-pyrazol-3-ylamino)pyrimidin-2-yl)thiophene-2-sulfonamide] was tested. Which pKi did it give?
Answer: Its pKi is 8.00 to 9.00.

Question: With `C#Cc1cnc(N2CC[C@H](NC(C)=O)C2)nc1Nc1cc(C2CC2)n[nH]1` (stereo in doubt) [Compound 195, N-[1-[4-[(5-cyclopropyl-2H-pyrazol-3-yl)amino]-5-ethynyl-pyrimidin-2-yl]pyrrolidin-3-yl]acetamide] as the compound, how does the pKi read?
Answer: Its pKi is 5.40 to 5.70.

Question: How did the pKi turn out when `C#Cc1cnc(-c2ccc([C@@H](O)C(C)C)s2)nc1Nc1cc(C2CC2)n[nH]1` (stereo in doubt) [Compound 210, 1-[5-[4-[(5-cyclopropyl-2H-pyrazol-3-yl)amino]-5-ethynyl-pyrimidin-2-yl]-2-thienyl]-2-methyl-propan-1-ol] was run?
Answer: The pKi was 7.30 to 8.00.

Question: `c1ccc(-c2nccc(Nc3cc(C4CC4)n[nH]3)n2)cc1` [Compound 2, N-(5-cyclopropyl-2H-pyrazol-3-yl)-2-phenyl-pyrimidin-4-amine] was tested. Which pKi did it give?
Answer: Its pKi is 7.00 to 7.30.

Question: How did the pKi turn out when `CC(=O)Nc1cnc(-c2ccccc2)nc1Nc1cc(C2CC2)n(C(C)=O)n1` [Compound 3, N-[4-[(1-acetyl-5-cyclopropyl-pyrazol-3-yl)amino]-2-phenyl-pyrimidin-5-yl]acetamide] was run?
Answer: The pKi was < 5.40.

Question: With `CC(=O)n1nc(Nc2nc(-c3ccccc3)ncc2N)cc1C1CC1` [Compound 4, 1-[3-[(5-amino-2-phenyl-pyrimidin-4-yl)amino]-5-cyclopropyl-pyrazol-1-yl]ethanone] as the compound, how does the pKi read?
Answer: The pKi was 6.30 to 7.00.

Question: `O=[N+]([O-])c1cnc(-c2ccccc2)nc1Nc1cc(C2CC2)[nH]n1` [Compound 6, N-(5-cyclopropyl-1H-pyrazol-3-yl)-5-nitro-2-phenylpyrimidin-4-amine] was tested. Which pKi did it give?
Answer: The pKi was < 5.40.

Question: `Brc1c(C2CC2)n[nH]c1Nc1ccnc(-c2ccccc2)n1` [Compound 7, N-(4-bromo-5-cyclopropyl-2H-pyrazol-3-yl)-2-phenyl-pyrimidin-4-amine] was tested. Which pKi did it give?
Answer: Its pKi is < 5.40.

Question: With `Brc1cnc(-c2ccccc2)nc1Nc1cc(C2CC2)n[nH]1` [Compound 8, 5-Bromo-N-(5-cyclopropyl-1H-pyrazol-3-yl)-2-phenylpyrimidin-4-amine] as the compound, how does the pKi read?
Answer: Its pKi is 6.30 to 7.00.

Question: How did the pKi turn out when `CC#Cc1cnc(-c2ccccc2)nc1Nc1cc(C2CC2)n[nH]1` [Compound 9, N-(5-cyclopropyl-1H-pyrazol-3-yl)-2-phenyl-5-(prop-1-ynyl)pyrimidin-4-amine] was run?
Answer: Its pKi is < 5.40.

Question: How did the pKi turn out when `CC(=O)Nc1cnc(-c2ccccc2)nc1Nc1cc(C2CC2)[nH]n1` [Compound 10, N-(4-(5-cyclopropyl-1H-pyrazol-3-ylamino)-2-phenylpyrimidin-5-yl)acetamide] was run?
Answer: The pKi was 5.70 to 6.00.

Question: With `C/C=C/c1cnc(-c2ccccc2)nc1Nc1cc(C2CC2)[nH]n1` [Compound 11, (E)-N-(5-cyclopropyl-1H-pyrazol-3-yl)-2-phenyl-5-(prop-1-enyl)pyrimidin-4-amine] as the compound, how does the pKi read?
Answer: Its pKi is 6.30 to 7.00.

Question: `c1cc(Nc2cc(C3CC3)[nH]n2)nc(Nc2ccc3[nH]ncc3c2)n1` [Compound 13, N4-(5-cyclopropyl-1H-pyrazol-3-yl)-N2-(1H-indazol-5-yl)pyrimidine-2,4-diamine] was tested. Which pKi did it give?
Answer: The pKi was 7.30 to 8.00.

Question: `N#CCc1ccc(-c2nccc(Nc3cc(C4CC4)[nH]n3)n2)cc1` [Compound 17, 2-(4-(4-(5-cyclopropyl-1H-pyrazol-3-ylamino)pyrimidin-2-yl)phenyl)acetonitrile] was tested. Which pKi did it give?
Answer: The pKi was 7.30 to 8.00.

Question: `Cc1cnc(-c2ccc(S(C)(=O)=O)cc2)nc1Nc1cc(C2CC2)[nH]n1` [Compound 20, N-(5-cyclopropyl-1H-pyrazol-3-yl)-5-methyl-2-(4-(methylsulfonyl)phenyl)pyrimidin-4-amine] was tested. Which pKi did it give?
Answer: Its pKi is 6.30 to 7.00.

Question: With `OCc1ccc(-c2nccc(Nc3cc(C4CC4)[nH]n3)n2)s1` [Compound 22, (5-(4-(5-cyclopropyl-1H-pyrazol-3-ylamino)pyrimidin-2-yl)thiophen-2-yl)methanol] as the compound, how does the pKi read?
Answer: The pKi was 7.30 to 8.00.

Question: `Cc1cnc(-c2ccc(CC#N)cc2)nc1Nc1cc(C2CC2)[nH]n1` [Compound 24, 2-(4-(4-(5-cyclopropyl-1H-pyrazol-3-ylamino)-5-methylpyrimidin-2-yl)phenyl)acetonitrile] was tested. Which pKi did it give?
Answer: The pKi was 7.30 to 8.00.

Question: With `c1csc(-c2nccc(Nc3cc(C4CC4)[nH]n3)n2)c1` [Compound 27, N-(5-cyclopropyl-1H-pyrazol-3-yl)-2-(thiophen-2-yl)pyrimidin-4-amine] as the compound, how does the pKi read?
Answer: The pKi was 7.30 to 8.00.

Question: With `NS(=O)(=O)c1cccc(-c2nccc(Nc3cc(C4CC4)[nH]n3)n2)c1` [Compound 28, 3-[4-[(5-cyclopropyl-1H-pyrazol-3-yl)amino]pyrimidin-2-yl]benzenesulfonamide] as the compound, how does the pKi read?
Answer: Its pKi is 7.30 to 8.00.

Question: How did the pKi turn out when `Clc1cnc(-c2cccs2)nc1Nc1cc(C2CC2)[nH]n1` [Compound 29, 5-chloro-N-(5-cyclopropyl-1H-pyrazol-3-yl)-2-(thiophen-2-yl)pyrimidin-4-amine] was run?
Answer: Its pKi is 7.00 to 7.30.

Question: With `NS(=O)(=O)c1cccc(-c2ncc(Cl)c(Nc3cc(C4CC4)[nH]n3)n2)c1` [Compound 30, 3-[5-chloro-4-[(5-cyclopropyl-1H-pyrazol-3-yl)amino]-pyrimidin-2-yl]benzenesulfonamide] as the compound, how does the pKi read?
Answer: The pKi was 7.30 to 8.00.

Question: With `Cc1cnc(-c2cccc(S(N)(=O)=O)c2)nc1Nc1cc(C2CC2)[nH]n1` [Compound 31, 3-[4-[(5-cyclopropyl-1H-pyrazol-3-yl)amino]-5-methyl-pyrimidin-2-yl]benzenesulfonamide] as the compound, how does the pKi read?
Answer: The pKi was 7.30 to 8.00.

Question: With `NC(=O)c1cc(-c2ncc(F)c(Nc3cc(C4CC4)[nH]n3)n2)ccc1Cl` [Compound 34, 2-chloro-5-[4-[(5-cyclopropyl-1H-pyrazol-3-yl)amino]-5-fluoro-pyrimidin-2-yl]-benzamide] as the compound, how does the pKi read?
Answer: The pKi was 7.30 to 8.00.

Question: `NS(=O)(=O)c1cccc(-c2ncc(F)c(Nc3cc(C4CC4)[nH]n3)n2)c1` [Compound 35, 3-[4-[(5-cyclopropyl-1H-pyrazol-3-yl)amino]-5-fluoro-pyrimidin-2-yl]benzenesulfonamide] was tested. Which pKi did it give?
Answer: Its pKi is 7.30 to 8.00.

Question: How did the pKi turn out when `COC/C=C/c1cnc(-c2ccccc2)nc1Nc1cc(C2CC2)[nH]n1` [Compound 39, (E)-N-(5-cyclopropyl-1H-pyrazol-3-yl)-5-(3-methoxyprop-1-enyl)-2-phenylpyrimidin-4-amine] was run?
Answer: Its pKi is 6.00 to 6.30.

Question: `Cc1cnc(-c2ccc(S(N)(=O)=O)s2)nc1Nc1cc(C2CC2)[nH]n1` [Compound 40, 5-(4-(5-cyclopropyl-1H-pyrazol-3-ylamino)-5-methylpyrimidin-2-yl)thiophene-2-sulfonamide] was tested. Which pKi did it give?
Answer: Its pKi is 8.00 to 9.00.

Question: `NS(=O)(=O)c1ccc(-c2ncc(Cl)c(Nc3cc(C4CC4)[nH]n3)n2)s1` [Compound 42, 5-(5-chloro-4-(5-cyclopropyl-1H-pyrazol-3-ylamino)pyrimidin-2-yl)thiophene-2-sulfonamide] was tested. Which pKi did it give?
Answer: Its pKi is 8.00 to 9.00.

Question: `CCc1cnc(N2CCN(C)CC2)nc1Nc1cc(C2CC2)[nH]n1` [Compound 46, N-(5-cyclopropyl-1H-pyrazol-3-yl)-5-ethyl-2-(4-methylpiperazin-1-yl)-pyrimidin-4-amine] was tested. Which pKi did it give?
Answer: The pKi was < 5.40.

Question: How did the pKi turn out when `CN1CCN(c2nccc(Nc3cc(C4CC4)[nH]n3)n2)CC1` [Compound 47, N-(5-cyclopropyl-1H-pyrazol-3-yl)-2-(4-methylpiperazin-1-yl)-pyrimidin-4-amine] was run?
Answer: The pKi was < 5.40.

Question: With `CNS(=O)(=O)c1ccc(-c2nccc(Nc3cc(C4CC4)[nH]n3)n2)s1` [Compound 48] as the compound, how does the pKi read?
Answer: The pKi was 8.00 to 9.00.

Question: `COC(=O)CC1c2cnc(-c3ccccc3)nc2Nc2cc(C3CC3)nn21` (stereo not drawn) [Compound 49, methyl 2-(cyclopropyl-phenyl-BLAHyl)acetate] was tested. Which pKi did it give?
Answer: Its pKi is < 5.40.

Question: How did the pKi turn out when `NS(=O)(=O)c1ccc(-c2nccc(Nc3cc(C4CC4)[nH]n3)n2)s1` [Compound 50, 5-(4-(5-cyclopropyl-1H-pyrazol-3-ylamino)pyrimidin-2-yl)thiophene-2-sulfonamide] was run?
Answer: Its pKi is 8.00 to 9.00.

Question: `NS(=O)(=O)c1ccc(-c2ncc(F)c(Nc3cc(C4CC4)[nH]n3)n2)s1` [Compound 52, 5-(4-(5-cyclopropyl-1H-pyrazol-3-ylamino)-5-fluoropyrimidin-2-yl)thiophene-2-sulfonamide] was tested. Which pKi did it give?
Answer: Its pKi is 8.00 to 9.00.

Question: `NS(=O)(=O)C/C=C/c1nccc(Nc2cc(C3CC3)[nH]n2)n1` [Compound 54, 3-[4-[(5-cyclopropyl-1H-pyrazol-3-yl)amino]pyrimidin-2-yl]prop-2-ene-1-sulfonamide] was tested. Which pKi did it give?
Answer: The pKi was 5.70 to 6.00.

From patent publication US20110053916A1 (Vertex Pharmaceuticals Incorporated, priority 2009, published 2011)
